Experimental data taken from PMC5218480 (PLoS ONE, 2017).

Tested on: MV-4-11 cells
Assay: Gene expression microarray analysis (Affymetrix PrimeView) and GSEA
Type: cell-based, human
Design: RFU PODN (11730768_x_at) / Fold change /veh PODN (11730768_x_at) / RFU LINC00158 (11744669_a_at) / Fold change /veh LINC00158 (11744669_a_at) / RFU DUSP10 (11751237_a_at) / Fold change /veh DUSP10 (11751237_a_at) / RFU ID3 (11757404_x_at) / Fold change /veh ID3 (11757404_x_at) / RFU PLEKHG5 (11737974_s_at) / Fold change /veh PLEKHG5 (11737974_s_at) / RFU LRRC4B (11730491_at) / Fold change /veh LRRC4B (11730491_at) / RFU GIMAP4 (11747438_a_at) / Fold change /veh GIMAP4 (11747438_a_at) / RFU KRT8 (11758183_x_at) / Fold change /veh KRT8 (11758183_x_at) / RFU CNN1 (11734310_a_at) / Fold change /veh CNN1 (11734310_a_at) / RFU VPS37D (11726825_at) / Fold change /veh VPS37D (11726825_at) / RFU C10orf10 (11716522_x_at) / Fold change /veh C10orf10 (11716522_x_at) / RFU KIR2DL2 /// KIR2DL4 /// KIR2DL5A /// KIR2DL5B /// KIR2DS1 /// KIR2DS2 /// KIR2DS3 /// KIR2DS4 /// KIR3DL3 /// KIR3DL3 /// KIR3DS1 (11738374_at) / Fold change /veh KIR2DL2 /// KIR2DL4 /// KIR2DL5A /// KIR2DL5B /// KIR2DS1 /// KIR2DS2 /// KIR2DS3 /// KIR2DS4 /// KIR3DL3 /// KIR3DL3 /// KIR3DS1 (11738374_at) / RFU C1QL1 (11718748_at) / Fold change /veh C1QL1 (11718748_at) / RFU TMPRSS4 (11747572_a_at) / Fold change /veh TMPRSS4 (11747572_a_at) / RFU HAMP (11756126_x_at) / Fold change /veh HAMP (11756126_x_at) / RFU RNFT2 (11725882_a_at) / Fold change /veh RNFT2 (11725882_a_at) / RFU NR4A2 (11747474_a_at) / Fold change /veh NR4A2 (11747474_a_at) / RFU ABCC12 (11746883_a_at) / Fold change /veh ABCC12 (11746883_a_at) / RFU TMEM136 (11760407_x_at) / Fold change /veh TMEM136 (11760407_x_at) / RFU CLDN22 /// WWC2 (11732394_at) / Fold change /veh CLDN22 /// WWC2 (11732394_at) / RFU HLA-DPB1 (11760878_x_at) / Fold change /veh HLA-DPB1 (11760878_x_at) / RFU SPINT1 (11716480_a_at) / Fold change /veh SPINT1 (11716480_a_at) / RFU GAP43 (11754022_s_at) / Fold change /veh GAP43 (11754022_s_at) / RFU A4GNT (11735810_at) / Fold change /veh A4GNT (11735810_at) / RFU PRB3 (11715151_x_at) / Fold change /veh PRB3 (11715151_x_at) / RFU TUBB4B (11761932_at) / Fold change /veh TUBB4B (11761932_at) / RFU CAPN14 (11732068_a_at) / Fold change /veh CAPN14 (11732068_a_at) / RFU TMCC2 (11721928_a_at) / Fold change /veh TMCC2 (11721928_a_at) / RFU IRGQ (11745062_a_at) / Fold change /veh IRGQ (11745062_a_at) / RFU FAM174B (11720279_a_at) / Fold change /veh FAM174B (11720279_a_at) / RFU TMPRSS4 (11748680_a_at) / Fold change /veh TMPRSS4 (11748680_a_at) / RFU FAM212B (11763350_a_at) / Fold change /veh FAM212B (11763350_a_at) / RFU PLEKHG5 (11743358_a_at) / Fold change /veh PLEKHG5 (11743358_a_at) / RFU ZSCAN30 (11745921_a_at) / Fold change /veh ZSCAN30 (11745921_a_at) / RFU CMKLR1 (11741424_a_at) / Fold change /veh CMKLR1 (11741424_a_at) / RFU LOC101060620 /// MAPK8IP1 (11723275_at) / Fold change /veh LOC101060620 /// MAPK8IP1 (11723275_at) / RFU SPTSSB (11747773_x_at) / Fold change /veh SPTSSB (11747773_x_at) / RFU PRSS12 (11739890_at) / Fold change /veh PRSS12 (11739890_at) / RFU BIN1 (11741810_x_at) / Fold change /veh BIN1 (11741810_x_at) / RFU WNT11 (11732464_a_at) / Fold change /veh WNT11 (11732464_a_at) / RFU C10orf10 (11716521_a_at) / Fold change /veh C10orf10 (11716521_a_at) / RFU C5orf56 (11738089_at) / Fold change /veh C5orf56 (11738089_at) / RFU CYB561 (11721691_x_at) / Fold change /veh CYB561 (11721691_x_at) / RFU ANKRD19P (11752326_a_at) / Fold change /veh ANKRD19P (11752326_a_at) / RFU OR2T12 /// OR2T33 /// OR2T8 (11738714_s_at) / Fold change /veh OR2T12 /// OR2T33 /// OR2T8 (11738714_s_at) / RFU VCAN (11748164_a_at) / Fold change /veh VCAN (11748164_a_at) / RFU JSRP1 (11732532_at) / Fold change /veh JSRP1 (11732532_at) / RFU KRTAP10-11 (11738290_x_at) / Fold change /veh KRTAP10-11 (11738290_x_at) / RFU MYO3A (11730013_a_at) / Fold change /veh MYO3A (11730013_a_at) / RFU EBF3 (11725865_a_at) / Fold change /veh EBF3 (11725865_a_at) / RFU CAMK2N1 (11719241_x_at) / Fold change /veh CAMK2N1 (11719241_x_at) / RFU C5orf56 (11738088_a_at) / Fold change /veh C5orf56 (11738088_a_at) / RFU OLFML3 (11715873_a_at) / Fold change /veh OLFML3 (11715873_a_at) / RFU LOC100653217 /// NTM (11731650_a_at) / Fold change /veh LOC100653217 /// NTM (11731650_a_at) / RFU MAPK11 (11762145_a_at) / Fold change /veh MAPK11 (11762145_a_at) / RFU FIZ1 (11724087_x_at) / Fold change /veh FIZ1 (11724087_x_at) / RFU OASL (11726364_x_at) / Fold change /veh OASL (11726364_x_at) / RFU SOX15 (11748057_x_at) / Fold change /veh SOX15 (11748057_x_at) / RFU CD79A (11719716_a_at) / Fold change /veh CD79A (11719716_a_at) / RFU HIST1H1D (11736915_at) / Fold change /veh HIST1H1D (11736915_at) / RFU CASKIN2 (11723855_a_at) / Fold change /veh CASKIN2 (11723855_a_at) / RFU LOC730098 (11760151_x_at) / Fold change /veh LOC730098 (11760151_x_at) / RFU OR4N2 (11742367_at) / Fold change /veh OR4N2 (11742367_at) / RFU PRRT2 (11749266_a_at) / Fold change /veh PRRT2 (11749266_a_at) / RFU SNX32 (11753110_a_at) / Fold change /veh SNX32 (11753110_a_at) / RFU CDHR5 (11726645_a_at) / Fold change /veh CDHR5 (11726645_a_at) / RFU RCAN1 (11760418_a_at) / Fold change /veh RCAN1 (11760418_a_at) / RFU FAM167A (11723789_a_at) / Fold change /veh FAM167A (11723789_a_at) / RFU FAM26E (11764081_at) / Fold change /veh FAM26E (11764081_at) / RFU ISYNA1 (11749810_s_at) / Fold change /veh ISYNA1 (11749810_s_at) / RFU ACY1 (11761880_at) / Fold change /veh ACY1 (11761880_at) / RFU 11764098_at / Fold change /veh 11764098_at / RFU SAMD14 (11745864_x_at) / Fold change /veh SAMD14 (11745864_x_at) / RFU NPB (11741838_a_at) / Fold change /veh NPB (11741838_a_at) / RFU TMPRSS6 (11731388_a_at) / Fold change /veh TMPRSS6 (11731388_a_at) / RFU KRTAP10-2 (11738614_at) / Fold change /veh KRTAP10-2 (11738614_at) / RFU ARHGAP8 /// PRR5-ARHGAP8 (11727945_x_at) / Fold change /veh ARHGAP8 /// PRR5-ARHGAP8 (11727945_x_at) / RFU KRTAP5-7 /// NADSYN1 (11734609_at) / Fold change /veh KRTAP5-7 /// NADSYN1 (11734609_at) / RFU RASL12 (11751679_a_at) / Fold change /veh RASL12 (11751679_a_at) / RFU CDKN2B (11736163_a_at) / Fold change /veh CDKN2B (11736163_a_at) / RFU PRF1 (11729649_at) / Fold change /veh PRF1 (11729649_at) / RFU, ZNF638 /// ZNF638-IT1 / Fold change vs veh, ZNF638 /// ZNF638-IT1 / RFU, PANK3 / Fold change vs veh, PANK3 / RFU, SH3YL1 / Fold change vs veh, SH3YL1 / RFU, ZEB2 / Fold change vs veh, ZEB2 / RFU, NRIP1 / Fold change vs veh, NRIP1 / RFU, PTTG1IP / Fold change vs veh, PTTG1IP / RFU, CAPN2 / Fold change vs veh, CAPN2 / RFU, MED14 / Fold change vs veh, MED14 / RFU, SNORA58 / Fold change vs veh, SNORA58 / RFU, C1orf63 / Fold change vs veh, C1orf63 / RFU, LRRFIP1 / Fold change vs veh, LRRFIP1 / RFU, NDUFAF7 / Fold change vs veh, NDUFAF7 / RFU, SLC12A2 / Fold change vs veh, SLC12A2 / RFU, IBTK / Fold change vs veh, IBTK / RFU, ESF1 / Fold change vs veh, ESF1 / Fold change vs veh, TMEM50B / RFU, TAOK1 / Fold change vs veh, TAOK1 / RFU, ACBD3 / Fold change vs veh, ACBD3 / RFU, TMA16 / Fold change vs veh, TMA16 / RFU, RWDD3 / Fold change vs veh, RWDD3 / RFU, BCAT1 / Fold change vs veh, BCAT1 / RFU, EDEM3 / Fold change vs veh, EDEM3 / RFU, TMEM33 / Fold change vs veh, TMEM33 / RFU, WDR75 / Fold change vs veh, WDR75 / RFU, AHCTF1 / Fold change vs veh, AHCTF1 / RFU, TFRC / Fold change vs veh, TFRC / RFU, ZDHHC17 / Fold change vs veh, ZDHHC17 / RFU, NOM1 / Fold change vs veh, NOM1 / RFU, ARL8B / Fold change vs veh, ARL8B / RFU, ZBTB11 / Fold change vs veh, ZBTB11 / RFU, TAMM41 / Fold change vs veh, TAMM41 / RFU, KIAA1704 /// LOC100996395 / Fold change vs veh, KIAA1704 /// LOC100996395 / RFU, ING1 / Fold change vs veh, ING1 / RFU, TRMT61B / Fold change vs veh, TRMT61B / RFU, FUBP3 / Fold change vs veh, FUBP3 / RFU, TP53 / Fold change vs veh, TP53 / RFU, TNKS2 / Fold change vs veh, TNKS2 / RFU, ZFP14 / Fold change vs veh, ZFP14 / RFU, ACTR2 / Fold change vs veh, ACTR2 / RFU, PPP3R1 / Fold change vs veh, PPP3R1 / RFU, PIK3R1 / Fold change vs veh, PIK3R1 / RFU, HNRNPA1 / Fold change vs veh, HNRNPA1 / RFU, RNF170 / Fold change vs veh, RNF170 / RFU, ZNF28 / Fold change vs veh, ZNF28 / RFU, RNGTT / Fold change vs veh, RNGTT / RFU, OGT / Fold change vs veh, OGT / RFU, BRD1 / Fold change vs veh, BRD1 / RFU, MARS / Fold change vs veh, MARS / RFU, ZNF655 / Fold change vs veh, ZNF655 / RFU, FAHD1 / Fold change vs veh, FAHD1 / RFU, BDP1 / Fold change vs veh, BDP1 / RFU, LRRCC1 / Fold change vs veh, LRRCC1 / RFU, ARID1A / Fold change vs veh, ARID1A / RFU, ZNF146 / Fold change vs veh, ZNF146 / RFU, ZNF330 / Fold change vs veh, ZNF330 / RFU, GPN3 / Fold change vs veh, GPN3 / RFU, C9orf123 / Fold change vs veh, C9orf123 / RFU, N4BP2L2 / Fold change vs veh, N4BP2L2 / RFU, ARFIP1 / Fold change vs veh, ARFIP1 / RFU, FAM179B / Fold change vs veh, FAM179B / RFU, BCL10 / Fold change vs veh, BCL10 / RFU, UHRF1BP1L / Fold change vs veh, UHRF1BP1L / RFU, BET1 / Fold change vs veh, BET1 / RFU, CNOT2 / Fold change vs veh, CNOT2 / RFU, ZNF268 / Fold change vs veh, ZNF268 / Fold change vs veh, ZNF507 / RFU, DGCR2 / Fold change vs veh, DGCR2 / RFU, WDSUB1 / Fold change vs veh, WDSUB1 / Fold change vs veh, HSP90B1 /// MIR3652 / RFU, ADSS / Fold change vs veh, ADSS / RFU, GK / Fold change vs veh, GK / RFU, ZNF148 / Fold change vs veh, ZNF148 / RFU, TAF9 / Fold change vs veh, TAF9 / RFU, SLC1A5 / Fold change vs veh, SLC1A5 / RFU, SLMO2 / Fold change vs veh, SLMO2 / RFU, ABCC4 / Fold change vs veh, ABCC4 / RFU, LOC101060439 /// RAP1B / Fold change vs veh, LOC101060439 /// RAP1B / RFU, RFX7 / Fold change vs veh, RFX7 / RFU, GTPBP10 / Fold change vs veh, GTPBP10 / RFU, CNEP1R1 / Fold change vs veh, CNEP1R1 / RFU, BIVM-ERCC5 /// ERCC5 / Fold change vs veh, BIVM-ERCC5 /// ERCC5 / RFU, ILF3 / Fold change vs veh, ILF3 / RFU 11762660_at / Fold change /veh 11762660_at / RFU VCAN (11757783_s_at) / Fold change /veh VCAN (11757783_s_at) / RFU DDX43 (11728927_at) / Fold change /veh DDX43 (11728927_at) / RFU KRT8 (11758188_x_at) / Fold change /veh KRT8 (11758188_x_at) / RFU NKD1 (11759106_at) / Fold change /veh NKD1 (11759106_at) / RFU SRD5A1 (11742802_a_at) / Fold change /veh SRD5A1 (11742802_a_at) / RFU TPSAB1 /// TPSB2 (11721975_s_at) / Fold change /veh TPSAB1 /// TPSB2 (11721975_s_at) / RFU GSTM3 (11746129_a_at) / Fold change /veh GSTM3 (11746129_a_at) / RFU IL23R (11737362_x_at) / Fold change /veh IL23R (11737362_x_at) / RFU TMEM51 (11727254_a_at) / Fold change /veh TMEM51 (11727254_a_at) / RFU PIWIL2 (11732686_x_at) / Fold change /veh PIWIL2 (11732686_x_at) / RFU ORM1 (11744905_x_at) / Fold change /veh ORM1 (11744905_x_at) / RFU CCDC152 (11743942_at) / Fold change /veh CCDC152 (11743942_at) / RFU ECM1 (11717891_a_at) / Fold change /veh ECM1 (11717891_a_at) / RFU IL23R (11748794_a_at) / Fold change /veh IL23R (11748794_a_at) / RFU TNFAIP8L3 (11732012_x_at) / Fold change /veh TNFAIP8L3 (11732012_x_at) / RFU MBOAT4 (11741988_at) / Fold change /veh MBOAT4 (11741988_at) / RFU 11764193_at / Fold change /veh 11764193_at / RFU TMEM53 (11763286_at) / Fold change /veh TMEM53 (11763286_at) / RFU MAGEB2 (11727129_at) / Fold change /veh MAGEB2 (11727129_at) / RFU TMEM200A (11744735_a_at) / Fold change /veh TMEM200A (11744735_a_at) / RFU CCDC152 (11751479_a_at) / Fold change /veh CCDC152 (11751479_a_at) / RFU FAM211A (11726209_a_at) / Fold change /veh FAM211A (11726209_a_at) / RFU RGS16 (11746705_a_at) / Fold change /veh RGS16 (11746705_a_at) / RFU VCAN (11755009_s_at) / Fold change /veh VCAN (11755009_s_at) / RFU RHOB (11743442_s_at) / Fold change /veh RHOB (11743442_s_at) / RFU RGS16 (11720943_a_at) / Fold change /veh RGS16 (11720943_a_at) / RFU RGS16 (11720944_at) / Fold change /veh RGS16 (11720944_at) / RFU, VPS4B / Fold change vs veh, VPS4B / RFU, CREB1 / Fold change vs veh, CREB1 / RFU, DNAJC13 / Fold change vs veh, DNAJC13 / RFU, GNAQ / Fold change vs veh, GNAQ / RFU, CDK5R1 / Fold change vs veh, CDK5R1 / RFU, ZRANB3 / Fold change vs veh, ZRANB3 / RFU, CUL4A / Fold change vs veh, CUL4A / RFU, CCNY / Fold change vs veh, CCNY / RFU, UFL1 / Fold change vs veh, UFL1 / RFU, COG3 / Fold change vs veh, COG3 / RFU, DIAPH2 / Fold change vs veh, DIAPH2 / RFU, SKA2 / Fold change vs veh, SKA2 / RFU, AFF3 / Fold change vs veh, AFF3 / RFU, LMF1 / Fold change vs veh, LMF1 / RFU, IPO11 / Fold change vs veh, IPO11 / RFU, DFFB / Fold change vs veh, DFFB / RFU, FOXP1 / Fold change vs veh, FOXP1 / RFU, CARD8 / Fold change vs veh, CARD8 / RFU, STRN3 / Fold change vs veh, STRN3 / RFU, ADK / Fold change vs veh, ADK / RFU, RASSF2 / Fold change vs veh, RASSF2 / RFU, WIPF1 / Fold change vs veh, WIPF1 / RFU, LARP1B / Fold change vs veh, LARP1B / RFU, RASA1 / Fold change vs veh, RASA1 / RFU, RB1 / Fold change vs veh, RB1 / RFU, PPFIA1 / Fold change vs veh, PPFIA1 / RFU, MAT2A / Fold change vs veh, MAT2A / RFU, CCT5 / Fold change vs veh, CCT5 / RFU, WDR92 / Fold change vs veh, WDR92 / RFU, CUX1 / Fold change vs veh, CUX1 / RFU, TTC7A / Fold change vs veh, TTC7A / RFU, TMEM135 / Fold change vs veh, TMEM135 / RFU, DEPTOR / Fold change vs veh, DEPTOR / RFU, CPM / Fold change vs veh, CPM / RFU, DNAJB6 / Fold change vs veh, DNAJB6 / RFU, CACNA2D3 / Fold change vs veh, CACNA2D3 / RFU, DTX4 / Fold change vs veh, DTX4 / RFU, TFCP2 / Fold change vs veh, TFCP2 / RFU, GMCL1 /// GMCL1P1 / Fold change vs veh, GMCL1 /// GMCL1P1 / RFU, AEBP2 / Fold change vs veh, AEBP2 / RFU, SNHG1 /// SNORD22 /// SNORD25 /// SNORD26 /// SNORD27 /// SNORD28 /// SNORD29 /// SNORD31 / Fold change vs veh, SNHG1 /// SNORD22 /// SNORD25 /// SNORD26 /// SNORD27 /// SNORD28 /// SNORD29 /// SNORD31 / Fold change (Aza/veh), C12orf56 (ProbeSet 11735607_a_at) / Fold change (ACY-1035/veh), C12orf56 (ProbeSet 11735607_a_at) / Fold change (Aza/veh), FGFR1OP (ProbeSet 11751329_s_at) / Fold change (ACY-1035/veh), FGFR1OP (ProbeSet 11751329_s_at) / Fold change (Aza/veh), VPS36 (ProbeSet 11739960_a_at) / Fold change (ACY-1035/veh), VPS36 (ProbeSet 11739960_a_at) / RFU SYPL1 (11715823_x_at) / Fold change /veh SYPL1 (11715823_x_at) / RFU IGFBP7 (11715501_s_at) / Fold change /veh IGFBP7 (11715501_s_at) / RFU REEP3 (11722064_at) / Fold change /veh REEP3 (11722064_at) / RFU IGLL1 (11728026_x_at) / Fold change /veh IGLL1 (11728026_x_at): dose or concentration left out as unconfirmed
Conditions: MV-4-11 cells, 48 hours

Q: How did the “Fold change /veh NPB (11741838_a_at)” value turn out when `Nc1ncn([C@@H]2O[C@H](CO)[C@@H](O)[C@H]2O)c(=O)n1` [azacitidine] was run?
A: 0.96
